# Assay results: ChEMBL document CHEMBL1201862, “PubChem BioAssay data set” (2004)
# Active and inactive are the calls of the source. Cut-off read from the data, not from the text of the source, for most assays here: actives have a measured EC50 and inactives only a lower limit.
# Assays:
# [1] = biological target: Galanin receptor type 3 (Homo sapiens, UniProt O60755); assay: Fluorescence-based cell-based primary high throughput dose response assay to identify antagonists of the Galanin Receptor 3 (GalR3).; type: functional
# Galanin receptor type 3, sequence (O60755 whole entry): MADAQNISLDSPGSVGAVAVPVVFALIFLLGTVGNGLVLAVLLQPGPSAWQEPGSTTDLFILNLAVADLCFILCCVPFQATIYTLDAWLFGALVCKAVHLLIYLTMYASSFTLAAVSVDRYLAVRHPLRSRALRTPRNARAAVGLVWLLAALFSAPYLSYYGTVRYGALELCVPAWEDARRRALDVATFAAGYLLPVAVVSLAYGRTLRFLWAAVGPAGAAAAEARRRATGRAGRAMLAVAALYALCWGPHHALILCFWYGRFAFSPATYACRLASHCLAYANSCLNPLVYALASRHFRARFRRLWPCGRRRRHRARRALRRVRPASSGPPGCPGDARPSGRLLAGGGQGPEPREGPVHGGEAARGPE
# [2] = cells; type: functional, cell-based; conditions: HEK-CNG
# [3] = biological target: Fructose-bisphosphate aldolase (Mycobacterium tuberculosis, UniProt P9WQA3); assay: Fluorescence-based biochemical high throughput dose response assay for inhibitors of the fructose-bisphosphate aldolase (FBA) of M. tuberculosis.; type: functional
# Fructose-bisphosphate aldolase, sequence (P9WQA3 whole entry): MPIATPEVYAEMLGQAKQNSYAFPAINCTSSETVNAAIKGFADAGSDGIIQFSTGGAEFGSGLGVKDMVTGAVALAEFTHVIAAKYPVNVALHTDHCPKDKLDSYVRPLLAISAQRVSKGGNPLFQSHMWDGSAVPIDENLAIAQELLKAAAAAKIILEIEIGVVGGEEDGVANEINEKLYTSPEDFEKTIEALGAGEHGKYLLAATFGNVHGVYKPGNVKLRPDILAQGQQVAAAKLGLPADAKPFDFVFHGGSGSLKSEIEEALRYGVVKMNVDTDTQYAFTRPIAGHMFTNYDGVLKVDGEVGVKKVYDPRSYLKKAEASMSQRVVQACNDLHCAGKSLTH
# [4] = Luminescence Cell-Based Dose Confirmation to Identify Activators of 5'UTR Stem-Loop Driven Alpha-Synuclein mRNA Translation in H4 Neuroglioblastoma Cells. [Related pubchem assays: 1829 (Project Summary), 1814 (Primary HTS)]; type: functional
# [5] = Luminescence Cell-Based Dose Response to Identify Activators of 5'UTR Stem-Loop Driven Prion Protein mRNA Translation in H4-C Neuroglioblastoma Cells. [Related pubchem assays: 1829 (Project Summary), 1814 (Primary HTS)]; type: functional
# [6] = biological target: Beta-lactamase (Salmonella choleraesuis (strain SC-B67), UniProt Q5J463)
# Beta-lactamase (Salmonella choleraesuis (strain SC-B67), UniProt Q5J463), sequence (Q5J463 whole entry): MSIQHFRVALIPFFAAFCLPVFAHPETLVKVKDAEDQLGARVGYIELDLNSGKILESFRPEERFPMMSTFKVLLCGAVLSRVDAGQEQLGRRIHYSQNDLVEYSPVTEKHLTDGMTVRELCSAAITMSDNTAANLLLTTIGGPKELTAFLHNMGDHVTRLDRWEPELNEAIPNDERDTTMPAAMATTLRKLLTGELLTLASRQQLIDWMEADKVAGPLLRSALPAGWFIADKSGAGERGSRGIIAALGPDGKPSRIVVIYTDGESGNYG
# [7] = test system: BJ; assay: growth inhibition of engineered Ras-driven BJ cells – cell-based, alamar blue fluorescence, cherrypicked samples, dose response (AID 2631); type: functional; conditions: Homo sapiens;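 note: confirmatory dose-response assay in RAS-dependent BJ fibroblasts engineered with TERT, LT and ST, with cytotoxicity read by fluorescence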
# [8] = test system: Streptococcus; assay: GAS UMAA2166 growth inhibition – luminescence, BacTiterGlo, counter-screen for streptokinase expression inhibitor project, dose response (AID 1915); type: functional, organism-based;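 note: potency for reduction of bacterial viability or growth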
# [9] = test system: BJ; assay: BJ-TERT fibroblast viability loss – cell-based, RAS-independent, luminescence, dose response (AID 1933); type: functional; conditions: Homo sapiens
# [10] = biological target: Beta-lactamase (Pseudomonas aeruginosa, UniProt Q79MP6);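 note: biochemical dose-response test of metallo-beta-lactamase enzyme inhibition, read out by epi-absorbance; purified recombinant IMP-1 metallo-beta-lactamase with nitrocefin as substrate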
# Beta-lactamase (Pseudomonas aeruginosa, UniProt Q79MP6), sequence (Q79MP6 whole entry): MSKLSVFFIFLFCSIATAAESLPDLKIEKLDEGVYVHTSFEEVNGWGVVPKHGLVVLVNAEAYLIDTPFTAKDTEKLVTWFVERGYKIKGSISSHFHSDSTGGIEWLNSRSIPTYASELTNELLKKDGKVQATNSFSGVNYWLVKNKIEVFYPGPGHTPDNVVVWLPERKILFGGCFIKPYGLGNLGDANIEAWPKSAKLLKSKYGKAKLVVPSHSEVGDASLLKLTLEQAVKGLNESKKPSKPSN
# [11] = Luminescence Cell-Based Dose Response to Identify Activators of Luciferase Translation or Activity in H4-C Neuroglioblastoma Cells. [Related pubchem assays: 1829 (Project Summary), 1814 (Primary HTS)]; type: functional
# [12] = biological target: T1, Streptokinase A (Streptococcus pyogenes serotype M1, UniProt P10520); assay: viability-normalized secreted streptokinase activity reduction – plasminogen activation absorbance, OD405, dose response (AID 1914); type: functional, Streptococcus pyogenes M1 GAS;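 note: secreted streptokinase activity via plasminogen activation per viability signal from cell pellet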
# T1 sequence (P10520 whole entry): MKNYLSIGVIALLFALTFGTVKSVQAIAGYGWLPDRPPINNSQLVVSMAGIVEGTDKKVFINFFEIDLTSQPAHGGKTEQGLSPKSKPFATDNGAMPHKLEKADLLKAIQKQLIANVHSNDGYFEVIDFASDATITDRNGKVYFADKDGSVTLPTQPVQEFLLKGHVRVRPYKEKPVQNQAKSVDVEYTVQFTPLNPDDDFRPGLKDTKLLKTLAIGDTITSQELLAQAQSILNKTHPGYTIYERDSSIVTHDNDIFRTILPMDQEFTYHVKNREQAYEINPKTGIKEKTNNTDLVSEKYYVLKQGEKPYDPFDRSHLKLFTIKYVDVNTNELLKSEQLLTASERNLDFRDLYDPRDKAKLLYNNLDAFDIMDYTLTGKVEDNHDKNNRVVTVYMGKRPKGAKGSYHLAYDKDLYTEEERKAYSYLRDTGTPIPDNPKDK
# [13] = test system: BJ; assay: cells; type: functional, cell-based; conditions: Homo sapiens
# [14] = DRD fibroblast viability loss – cell-based, non-viral oncogenic, luminescence, dose response (AID 1934); type: functional; conditions: Homo sapiens
# [15] = test system: BJ; assay: BJ-TERT-LT-ST fibroblast viability loss – cell-based, RAS-independent, luminescence, dose response (AID 1935); type: functional; conditions: Homo sapiens;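 note: BJ fibroblasts immortalized with TERT plus LT and ST oncogenes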
# [16] = test system: H4; assay: Luminescence Cell-Based Dose Response HTS to Identify Activators of 5'UTR Stem-Loop Driven Prion Protein mRNA Translation in H4 Neuroglioblastoma Cells. [Related pubchem assays: 1829 (Project Summary), 1814 (Primary HTS)]; type: functional; conditions: Homo sapiens
# [17] = test system: Streptococcus sp. 'group A'; assay: Streptococcus pyogenes SK(-)GAS viability under kanamycin – luminescence, BacTiterGlo, confirmation, counter-screen for streptokinase expression inhibitor project, dose response (AID 1900); type: functional, organism-based
# [18] = Counterscreen for inhibitors of Trypanosoma brucei methionyl tRNA synthetase (MetRS): Luminescence-based cell-based high throughput dose response assay to identify compounds that are cytotoxic to Jurkat human T lymphocyte cells.; type: functional
# [19] = biological target: T2, Methionyl-tRNA synthetase, putative (Trypanosoma brucei brucei, UniProt Q38C91); type: functional, Trypanosoma brucei brucei strain 927/4 GUTat10.1
# T2 sequence (Q38C91 whole entry): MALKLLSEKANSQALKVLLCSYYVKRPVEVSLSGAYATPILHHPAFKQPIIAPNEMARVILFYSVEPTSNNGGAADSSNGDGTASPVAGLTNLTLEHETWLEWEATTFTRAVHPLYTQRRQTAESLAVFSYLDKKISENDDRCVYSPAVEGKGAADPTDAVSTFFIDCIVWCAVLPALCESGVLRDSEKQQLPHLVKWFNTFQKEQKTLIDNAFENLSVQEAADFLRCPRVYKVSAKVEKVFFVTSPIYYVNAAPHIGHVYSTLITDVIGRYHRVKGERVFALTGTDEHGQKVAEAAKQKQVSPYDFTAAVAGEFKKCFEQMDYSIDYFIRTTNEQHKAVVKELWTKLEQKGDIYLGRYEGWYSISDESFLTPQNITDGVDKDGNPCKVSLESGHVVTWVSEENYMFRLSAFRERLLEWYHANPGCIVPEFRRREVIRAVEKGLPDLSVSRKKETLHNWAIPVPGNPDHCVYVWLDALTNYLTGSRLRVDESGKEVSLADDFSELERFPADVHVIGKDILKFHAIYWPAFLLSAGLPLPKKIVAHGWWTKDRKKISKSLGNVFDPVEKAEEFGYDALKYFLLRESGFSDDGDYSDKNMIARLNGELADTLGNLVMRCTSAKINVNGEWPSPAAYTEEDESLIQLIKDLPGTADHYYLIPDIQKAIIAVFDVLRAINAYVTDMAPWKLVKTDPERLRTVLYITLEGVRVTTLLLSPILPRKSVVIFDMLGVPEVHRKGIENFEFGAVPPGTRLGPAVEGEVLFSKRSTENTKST
# [20] = biological target: T2, Methionyl-tRNA synthetase, putative; type: functional, Trypanosoma brucei brucei strain 927/4 GUTat10.1; remark: listed apart in the source
compound,measurement,setting,value
CN(Cc1ccc2c(c1)CCCN2C)C(=O)[C@H]1O[C@@H](n2cnc3c(N)ncnc32)[C@H](O)[C@@H]1O,IC50,[1],3.97 µM (active)
same,EC50,[2],> 29.9 µM (inactive)
CCc1cc(=O)oc2cc(C)cc(OC(C)C(=O)NC3CCN(Cc4ccccc4)CC3)c12 (stereo unspecified),IC50,[3],1.52 µM (active)
CCC(/C=C1\Sc2ccc3ccccc3c2N1C)=C\c1sc2ccc3ccccc3c2[n+]1C,EC50,[4],3.46 µM (inconclusive)
same,EC50,[5],> 12 µM (not active)
same,IC50,[6],> 59.6 µM (inactive)
same,EC50,[7],< 0.104 µM (active)
same,EC50,[8],15.5 µM (active)
same,EC50,[9],0.164 µM (active)
same,IC50,[10],> 59.6 µM (inactive)
same,EC50,[11],> 12 µM (not active)
same,EC50,[12],> 150 µM (not active)
same,EC50,[13],0.352 µM (inconclusive)
same,EC50,[14],0.395 µM (active)
same,EC50,[15],0.343 µM (inconclusive)
same,EC50,[16],> 120 µM (not active)
same,EC50,[17],3.13 µM (active)
O=C(NCCc1ccc(Cl)cc1)Nc1ccc(Cl)cc1,IC50,[18],83.3 µM (inactive)
same,IC50,[19],2.58 µM (active)
same,IC50,[20],119 µM (inactive)
Cc1nn(-c2ccccc2)c(O)c1/C=N/c1cnc2ccccc2c1,IC50,[3],> 3.33 µM (active)
